Assay results as given in US9284272B2, “Inhibitors of histone methyltransferase G9a” (AbbVie Inc., priority 2014, dated 2016).
“And” between values parts separate entries of the source, which are not always exact repeats. Equal values may be shown once. Read-outs that look alike come from different tables or passages of the source.

Columns and labels:
H3K9me2 = assay: Cellular immunostaining (In-Cell Western), H3K9Me2 antibody immunofluorescence in PC3 cells; assay type: cell-based, human; conditions: for H3K9me2 % inhibition, single well of triplicate / inhibition at 0.03 µM / inhibition at 0.1 µM / inhibition at 0.3 µM / inhibition at 1 µM / inhibition at 3 µM: 72 hours; for inhibition at 0.03 µM / inhibition at 0.1 µM / inhibition at 0.3 µM / inhibition at 1 µM / inhibition at 3 µM: Homo sapiens, PC-3, 72 h
Protocol: For comparison, the known G9a inhibitor UNC0638 (see structure in FIG. 1) was evaluated in this study concurrently.
Human PC3 cells (ATCC, Manassas, Va.) were grown in RPMI+10% Fetal Bovine Serum and plated at 5,000 cells per well in a 96-well plate. The following day compounds and DMSO controls were added in triplicate at the indicated concentrations. Cells were fixed following incubation at 37° C. for 72 hours with 10% formaldehyde and then permeabilized with 0.1% Triton X-100. Cells were then washed with PBS and blocked with 0.1% BSA/PBS solution. Mouse anti-H3K9me2 (1:200, AbCam #1220, Cambridge, Mass.) and rabbit anti-Histone H3 (1:500, Cell Signaling Technology #4499, Danvers, Mass.) primary antibodies in 0.3% BSA were then added together to each well and incubated overnight at 4° C. The following day cells were washed in PBS-T (PBS with 0.1% Tween) followed by addition of anti-mouse (IR800) and anti-rabbit (IR700) secondary antibodies (LI-COR Biosciences, Lincoln, Nebr.) and incubated for one hour at room temperature. Cells were then washed with PBS-T followed by PBS and liquid was removed from all wells. The plate was scanned using both the 700 nm (anti-rabbit detection) and 800 nm (anti-mouse detection) channels on the Odyssey Imaging System (LI-COR Biosciences, Lincoln, Nebr.). Data was quantified using the LI-COR imaging suite and graphed as % inhibition H3K9me2/total H3/well compared to DMSO control wells. Wells treated in triplicate were averaged for each indicated concentration and error bars represent the standard deviation (n=3).

[1] = test system: human peripheral blood mononucleated cells (PBMCs); assay: Viability of PBMCs (Caspase-Glo 3/7, CellTiter Glo); assay type: cell-based; conditions: 0-10 uM, 48 h
Protocol: Following treatment, Caspase 3/7 activity (i.e., a marker of apoptosis) was assessed by the Caspase-Glo 3/7 assay system (FIG. 7A), and cell viability was assessed by CellTiter Glo assay (FIG. 7B).

[2] = Cytotoxicity, CellTiter Glo; assay type: cell-based; conditions: human, MHH-65-1 cells, 7-day proliferation, neural crest derived lines
[3] = Cytotoxicity, CellTiter Glo; assay type: cell-based; conditions: human, CAPO-ES1 cells, 7-day proliferation, neural crest derived lines
[4] = Cytotoxicity, CellTiter Glo; assay type: cell-based; conditions: human, PA-1 cells, 7-day proliferation, neural crest derived lines
[5] = Cytotoxicity, CellTiter Glo; assay type: cell-based; conditions: human, SK-N-MC cells, 7-day proliferation, neural crest derived lines
[6] = Cytotoxicity, CellTiter Glo; assay type: cell-based; conditions: human, G-401 cells, 7-day proliferation, neural crest derived lines
[7] = Cytotoxicity, CellTiter Glo; assay type: cell-based; conditions: human, ZR7350 cells, 7-day proliferation, neural crest derived lines
[8] = Cytotoxicity, CellTiter Glo; assay type: cell-based; conditions: human, US2OS cells, 7-day proliferation, neural crest derived lines
[9] = Cytotoxicity, CellTiter Glo; assay type: cell-based; conditions: human, DaoY cells, 7-day proliferation, neural crest derived lines
in vitro = assay type: cell-based; conditions: PH-1; 7-day proliferation, neural crest derived lines; read-out: IC50 cytotoxicity
[10] = Cytotoxicity, CellTiter Glo; assay type: cell-based; conditions: human, TC-71 cells, 7-day proliferation, neural crest derived lines
[11] = Cytotoxicity, CellTiter Glo; assay type: cell-based; conditions: human, IMR-32 cells, 12-day proliferation, neural crest derived lines
[12] = Cytotoxicity, CellTiter Glo; assay type: cell-based; conditions: A-201 cells, 12-day proliferation, neural crest derived lines
[13] = Cytotoxicity, CellTiter Glo; assay type: cell-based; conditions: human, THP-1 cells, 5-day proliferation
[14] = Cytotoxicity, CellTiter Glo; assay type: cell-based; conditions: human, RS4;11 cells, 5-day proliferation
[15] = Cytotoxicity, CellTiter Glo; assay type: cell-based; conditions: human, RPMI8226 cells, 5-day proliferation
[16] = Cytotoxicity, CellTiter Glo; assay type: cell-based; conditions: human, OPM2 cells, 5-day proliferation
[17] = Cytotoxicity, CellTiter Glo; assay type: cell-based; conditions: human, L-363 cells, 5-day proliferation
[18] = Cytotoxicity, CellTiter Glo; assay type: cell-based; conditions: human, KMS12 cells, 5-day proliferation
[19] = Cytotoxicity, CellTiter Glo; assay type: cell-based; conditions: human, KMS11 cells, 5-day proliferation
[20] = Cytotoxicity, CellTiter Glo; assay type: cell-based; conditions: human, Kasume-1 cells, 5-day proliferation
[21] = Cytotoxicity, CellTiter Glo; assay type: cell-based; conditions: human, HL-60 cells, 5-day proliferation
[22] = Cytotoxicity, CellTiter Glo; assay type: cell-based; conditions: human, H929 cells, 5-day proliferation
[23] = Cytotoxicity, CellTiter Glo; assay type: cell-based; conditions: human, MV4;11 cells, 5-day proliferation
[24] = Cytotoxicity, CellTiter Glo; assay type: cell-based; conditions: human, K562 cells, 5-day proliferation
[25] = Cytotoxicity, CellTiter Glo; assay type: cell-based; conditions: human, 22RV1 cells, 5-day proliferation
[26] = Cytotoxicity, CellTiter Glo; assay type: cell-based; conditions: human, Calu6 cells, 5-day proliferation
[27] = Cytotoxicity, CellTiter Glo; assay type: cell-based; conditions: human, DU145 cells, 5-day proliferation
[28] = Cytotoxicity, CellTiter Glo; assay type: cell-based; conditions: human, LN229 cells, 5-day proliferation
[29] = Cytotoxicity, CellTiter Glo; assay type: cell-based; conditions: human, LNCap cells, 5-day proliferation
[30] = Cytotoxicity, CellTiter Glo; assay type: cell-based; conditions: human, SKBR3 cells, 5-day proliferation

SMILES: COc1cc2c(NC3CCN(C(C)C)CC3)nc(C3CCCCC3)nc2cc1OCCCN1CCCC1 [UNC0638, reference compound]
- reduction of cellular levels of H3K9Me2 (H3K9me2; 3 μM): ~50%
- H3K9me2 % inhibition, single well of triplicate (H3K9me2; 0.03 uM): 17.8107% and 15.8006%
- H3K9me2 % inhibition, single well of triplicate (H3K9me2; 0.1 uM): 27.68% and 25.03%
- H3K9me2 % inhibition, single well of triplicate (H3K9me2; 0.3 uM): 41.05% and 40.37%
- H3K9me2 % inhibition, single well of triplicate (H3K9me2; 1 uM): 43.21% and 47.35%
- H3K9me2 % inhibition, single well of triplicate (H3K9me2; 3 uM): 48.22% and 49.38%
- inhibition at 0.03 µM (H3K9me2; 0.03 uM, n=3, read-out: H3K9me2 % inhibition, average): 14.6%
- inhibition at 0.03 µM (H3K9me2; 0.03 uM, read-out: H3K9me2 % inhibition, single well of triplicate): 10%
- inhibition at 0.1 µM (H3K9me2; 0.1 uM, n=3, read-out: H3K9me2 % inhibition, average): 25.8%
- inhibition at 0.1 µM (H3K9me2; 0.1 uM, read-out: H3K9me2 % inhibition, single well of triplicate): 24.6%
- inhibition at 0.3 µM (H3K9me2; 0.3 uM, n=3, read-out: H3K9me2 % inhibition, average): 40.8%
- inhibition at 0.3 µM (H3K9me2; 0.3 uM, read-out: H3K9me2 % inhibition, single well of triplicate): 41.1%
- inhibition at 1 µM (H3K9me2; 1 uM, n=3, read-out: H3K9me2 % inhibition, average): 45.2%
- inhibition at 1 µM (H3K9me2; 1 uM, read-out: H3K9me2 % inhibition, single well of triplicate): 44.9%
- inhibition at 3 µM (H3K9me2; 3 uM, n=3, read-out: H3K9me2 % inhibition, average): 48.5%
- inhibition at 3 µM (H3K9me2; 3 uM, read-out: H3K9me2 % inhibition, single well of triplicate): 47.8%
- cell viability as measured by total histone H3 (H3K9me2; versus no treatment): No difference in cell viability
- effect on PBMC viability (Caspase 3/7 activity and CellTiter Glo) [1]: did at higher concentrations
- IC50 at 7 day [2]: 1900 nM
- IC50 at 7 day [3]: 1200 nM
- IC50 at 7 day [4]: 200 nM
- IC50 at 7 day [5]: 200 nM
- IC50 at 7 day [6]: 400 nM
- IC50 at 7 day [7]: 1200 nM
- IC50 at 7 day [8]: 500 nM
- IC50 at 7 day [9]: 100 nM
- IC50 at 7 day (in vitro): 4400 nM
- IC50 at 7 day [10]: 600 nM
- IC50 at 12 day [11]: 100 nM
- IC50 at 12 day [12]: 600 nM
- IC50 at 5 day [13]: 4900 nM
- IC50 at 5 day [14]: 3100 nM
- IC50 at 5 day [15]: 5100 nM
- IC50 at 5 day [16]: 5600 nM
- IC50 at 5 day [17]: 3900 nM
- IC50 at 5 day [18]: 4400 nM
- IC50 at 5 day [19]: 4000 nM
- IC50 at 5 day [20]: 1100 nM
- IC50 at 5 day [21]: 6500 nM
- IC50 at 5 day [22]: 4600 nM
- IC50 at 5 day [23]: 1700 nM
- IC50 at 5 day [24]: 5300 nM
- IC50 at 5 day [25]: 200 nM
- IC50 at 5 day [26]: 500 nM
- IC50 at 5 day [27]: 700 nM
- IC50 at 5 day [28]: 500 nM
- IC50 at 5 day [29]: 300 nM
- IC50 at 5 day [30]: 600 nM
